Measured values from ChEMBL document CHEMBL3045479, “Synthesis and anti-cancer activity of some novel C-17 analogs of ursolic and oleanolic acids” (2013).

Experiments:
Assay type in all cases: functional
THP-1 = assay: Growth inhibition of Homo sapiens (human) THP1 cells at 10 uM after 48 hr by SRB assay; conditions: THP-1, 48 h, read-out: GI
PC-3 = assay: Growth inhibition of Homo sapiens (human) PC3 cells at 10 uM after 48 hr by SRB assay; conditions: PC-3, 48 h, read-out: GI
IMR-32 = assay: Growth inhibition of Homo sapiens (human) IMR32 cells at 10 uM after 48 hr by SRB assay; conditions: IMR-32, 48 h, read-out: GI
A549 = assay: Growth inhibition of Homo sapiens (human) A549 cells at 10 uM after 48 hr by SRB assay; conditions: A549, 48 h, read-out: GI
SiHa = assay: Growth inhibition of Homo sapiens (human) SiHa cells at 10 uM after 48 hr by SRB assay; conditions: read-out: GI
HeLa = assay: Growth inhibition of Homo sapiens (human) HeLa cells at 10 uM after 48 hr by SRB assay; conditions: read-out: GI
SW-620 = assay: Growth inhibition of Homo sapiens (human) SW620 cells at 10 uM after 48 hr by SRB assay; conditions: SW-620, 48 h, read-out: GI
COLO 205 = assay: Growth inhibition of Homo sapiens (human) COLO205 cells at 10 uM after 48 hr by SRB assay; conditions: COLO 205, 48 h, read-out: GI

## C[C@H]1[C@H](C)CC[C@]2(C(=O)O)CC[C@]3(C)C(=CC[C@@H]4[C@@]5(C)CC[C@H](O)C(C)(C)[C@@H]5CC[C@]43C)[C@H]12 [URSOLIC ACID]
THP-1
  inhibition of growth at 10 µM: 52%
PC-3
  inhibition of growth at 10 µM: 60%
IMR-32
  inhibition of growth at 10 µM: 13%
A549
  inhibition of growth at 10 µM: 8%
SiHa
  inhibition of growth at 10 µM: 67%
HeLa
  inhibition of growth at 10 µM: 65%
SW-620
  inhibition of growth at 10 µM: 71%
COLO 205
  inhibition of growth at 10 µM: 7%
